This test deals with T1, EcRB1/DmUSPF2 (Drosophila melanogaster, UniProt P34021).
T1 construct: The plasmid encodes a version of EcRB1 that includes 878 amino acids, and deletes the F domain; expressed in transfected cells; host or cells: CHO (mammalian cells)
T1 sequence (P34021 1-878): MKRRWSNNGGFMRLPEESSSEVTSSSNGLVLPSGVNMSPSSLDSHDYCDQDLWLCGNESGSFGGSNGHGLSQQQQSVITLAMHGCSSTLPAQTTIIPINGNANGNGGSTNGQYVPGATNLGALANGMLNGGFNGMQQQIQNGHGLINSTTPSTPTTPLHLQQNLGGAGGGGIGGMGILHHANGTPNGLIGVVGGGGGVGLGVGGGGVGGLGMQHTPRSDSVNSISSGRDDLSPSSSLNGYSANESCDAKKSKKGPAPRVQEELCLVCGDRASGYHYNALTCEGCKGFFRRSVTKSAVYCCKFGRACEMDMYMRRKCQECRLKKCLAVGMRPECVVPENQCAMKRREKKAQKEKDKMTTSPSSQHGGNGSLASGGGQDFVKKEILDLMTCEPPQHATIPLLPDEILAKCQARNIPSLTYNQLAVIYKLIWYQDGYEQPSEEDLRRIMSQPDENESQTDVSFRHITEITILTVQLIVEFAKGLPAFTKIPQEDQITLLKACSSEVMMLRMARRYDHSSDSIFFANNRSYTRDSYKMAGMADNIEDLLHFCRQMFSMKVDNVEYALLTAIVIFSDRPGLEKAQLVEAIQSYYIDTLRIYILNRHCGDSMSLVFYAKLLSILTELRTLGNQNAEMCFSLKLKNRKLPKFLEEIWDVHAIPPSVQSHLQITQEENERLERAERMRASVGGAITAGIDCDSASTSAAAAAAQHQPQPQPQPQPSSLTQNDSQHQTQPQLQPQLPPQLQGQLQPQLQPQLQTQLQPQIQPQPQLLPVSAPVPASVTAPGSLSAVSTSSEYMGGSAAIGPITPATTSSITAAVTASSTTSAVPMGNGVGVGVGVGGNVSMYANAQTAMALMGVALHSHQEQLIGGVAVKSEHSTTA
T1 sequence (P20153 104-507 partner limits assumed): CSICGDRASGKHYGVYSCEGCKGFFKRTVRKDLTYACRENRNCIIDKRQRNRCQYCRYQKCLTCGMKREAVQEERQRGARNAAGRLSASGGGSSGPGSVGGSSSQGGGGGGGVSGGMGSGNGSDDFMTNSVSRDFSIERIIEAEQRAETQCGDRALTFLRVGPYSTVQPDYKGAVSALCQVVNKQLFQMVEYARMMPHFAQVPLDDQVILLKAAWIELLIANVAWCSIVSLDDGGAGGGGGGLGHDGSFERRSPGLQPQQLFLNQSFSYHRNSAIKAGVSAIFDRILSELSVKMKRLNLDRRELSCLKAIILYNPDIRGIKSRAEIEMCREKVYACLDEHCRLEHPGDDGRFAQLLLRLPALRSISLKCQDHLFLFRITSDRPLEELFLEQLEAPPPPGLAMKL
Briefly: Drosophila EcRB1 with Drosophila USPF2, luciferase reporter in mammalian cells (FIG. 6). To be noted: for increase of the effect of 0.1 μM murA: with 0.1 μM murA. It is filed as cell-based. On the procedure: Unless noted otherwise, 100 ng of each EcR and USP plasmid was transfected into 2 ml of cell culture medium. As noted above, a reporter gene carrying five tandem copies of the hsp27 ecdysone response element (Riddihough and Pelham, 1986) is attached to a constitutive thymidine kinase promoter and a luciferase reporter gene (pEcREtk-LUC) and cotransfected into the cells along with vectors expressing EcR, USP, and a constitutively active β-galactosidase gene with lipofection, following manufacturer's protocols. The subsequent measure of luciferase activity reflects ecdysteroid-inducible transcription.
The Drosophila EcR isoform vectors (A, B1, and B2) used for these experiments have been described previously (Mouillet et al, 2001). These vectors lack the F-domain, which is also not essential for in vivo function (Cherbas et al, 2003). Additionally, three different VP16-USP vectors were utilized. Construction is of the VP16-USP vectors is described below. As in the earlier study, hsp27-EcRE mediated transcriptional activity was measured by detecting the luminescence produced by luciferase in transfected cell extracts. Luciferase activity was normalized by transfection with a plasmid that constitutively expresses the β-galactosidase gene such that enzymatic activity correlated with cellular mass.
After a 4 hour transfection period, the hormone treatment was applied by diluting stock solutions of muristerone A (murA; Alexis Corporation, San Diego, Calif.), JHI (Scitech), JHIII (Sigma, St Louis, Mo.), and/or 20E (Sigma, St Louis, Mo.) in DMSO. The cells were harvested 24 hours after treatment and the contents of the cells extracted for performing the luciferase and β-galactosidase assays.
Background: In a reporter assay the amount or activity of a reporter protein is the signal.

With `COC(=O)/C=C(\C)CC/C=C(\C)CC[C@H]1OC1(C)C` [JHIII, juvenile hormone III], the “increase of the effect of 0.1 μM murA” value is reported as “increased”.

On to `CC(C)=CCCC(C)=CCCC(C)=CC(=O)O` [farnesoic acid], for which the “increase of the effect of 0.1 μM murA” value is “increased”.

`COC(=O)/C=C(\C)CC/C=C(\C)CCC=C(C)C` [methyl farnesoate]: the “increase of the effect of 0.1 μM murA” value is listed as “increased”.

With `CC(C)CC[C@@H](O)[C@](C)(O)[C@H]1CC[C@@]2(O)C3=CC(=O)[C@]4(O)C[C@@H](O)[C@@H](O)C[C@]4(C)[C@H]3[C@H](O)C[C@]12C` [murA, muristerone A], the “stimulation of EcRB1/USPF2 complex” value (0.1 μM and 1.0 μM murA) is listed as “stimulated”.

The values are drawn from patent US8637237B2, “Methods, compositions, and systems for the identification of species-specific or developmental stage-specific insecticides” (The University of North Carolina at Greensboro, priority 2003, dated 2014).
